Measurements reported in PMC6751730 (ACS Omega, 2019).

What was measured:
[1] = test system: A549 cancer cells; assay: MTT antiproliferative assay, A549; assay type: cell-based, human; details: 24 h drug exposure
[2] = test system: HeLa cancer cells; assay: MTT antiproliferative assay, HeLa; assay type: cell-based, human; details: 24 h drug exposure
[3] = test system: HepG2 cancer cells; assay: MTT antiproliferative assay, HepG2; assay type: cell-based; details: 24 h drug exposure
[4] = test system: BEAS-2B normal cells; assay: MTT antiproliferative assay, normal cells BEAS-2B; assay type: cell-based; details: 24 h drug exposure
[5] = test system: lysosomes in A549 cells; details: cited from earlier work

| Compound | IC50 [1] | IC50 [2] | IC50 [3] | IC50 [4] | Colocalization coefficient with lysosome [5] |
| --- | --- | --- | --- | --- | --- |
| N.N.[Cl][Pt][Cl] [cisplatin] | 21.3 ± 1.7 µM | 7.5 ± 0.2 µM | 22.7 ± 1.1 µM | 42 ± 2.3 µM |  |
| CCNc1cc2c(cc1C)C1(c3cc(C)c(NCC)cc3O2)c2ccccc2C(=O)N1N [rhodamine 6G hydrazide] |  |  |  |  | 0.58 |
| CCN(CC)c1ccc2c(c1)Oc1cc(N(CC)CC)ccc1C21c2ccccc2C(=O)N1N [rhodamine B hydrazide] |  |  |  |  | 0.62 |
